The source of these data is article PMC6600370 (International Journal of Molecular Sciences, 2019).

Data set [1] concerns the target T1, Xanthine oxidase (from bovine milk) (Bos taurus, UniProt P80457).
T1 construct: Xanthine oxidase (from bovine milk); purchased Sigma-Aldrich; host or cells: bovine milk (natural source)
Description: XO assay with 6-MP substrate (6-thiouric acid formation, HPLC). It is filed as biochemical. The conditions noted are these: for Effect on 6-TU formation at 20 μM: 20 μM test compound; for Effect on 6-TU formation at 3 μM: 3 μM test compound; for IC50 (6-MP)/IC50 (Xanthine): ratio of IC50 values, both substrates 5 μM; for Effect on 6-TU formation at 0.25 μM: 0.25 μM test compound. The method, then: The incubations were carried out in 0.05 M sodium phosphate buffer (pH 7.5; final volume of incubates: 500 μL). The reaction started with the addition of the enzyme, and was stopped with 30 μL of 6 M HClO4 20, 40, or 60 min later. Thereafter, the samples were vortexed and centrifuged at 14,000× g for 5 min at room temperature. A 300-μL aliquot of the supernatant was carefully removed, after which 36 μL of 1 M KOH was added to these aliquots. Samples were cooled to 4 °C to enhance the precipitation of the formed KClO4, and centrifuged at 14,000× g for 5 min at 4 °C. The supernatants were carefully removed and the substrate together with metabolites were analyzed by HPLC (see details in Section 4.5). 6-MP is oxidized to 6-TX followed by 6-TU in the two-step reaction.
Quantitation of 6-MP, 6-TX, and 6-TU was performed by the previously described method with minor modifications.

Data set [2] addresses T1, Xanthine oxidase (from bovine milk). In words: XO assay with xanthine substrate (uric acid formation, HPLC). It is filed as biochemical. The following applies: for Effect on uric acid formation at 20 μM: 20 μM test compound (four-fold vs. substrate); for Effect on urate formation at 10 μM: 10 μM flavonoid, 15 min preincubation, 8 min. As to the method:
Xanthine (5 μM) was incubated with 0.0012 U/mL XO in the absence or presence of inhibitors (0–20 μM). Incubations were started with the addition of the enzyme (final volume of incubates: 500 μL), and stopped after 4, 8, and 12 min with 30 μL of 6 M HClO4. Thereafter, the samples were vortexed, after which 97 μL of 1 M KOH was added, then samples were cooled to 4 °C and centrifuged. Other experimental conditions were the same as described in Section 4.2. Xanthine and uric acid were quantified by HPLC (see details in Section 4.5).
(§1) Quantification of xanthine, hypoxanthine, and uric acid was performed by the previously described method with minor modifications.

For data set [3] the following is noted: cited from earlier work; for Therapeutic peak plasma concentrations: single 200 mg oral dose of APU.
The target of data set [4] is T1, Xanthine oxidase (from bovine milk). In words: XO assay with hypoxanthine substrate (xanthine + uric acid formation, HPLC). The class given is biochemical. As to the method: The experiments were started with the addition of the enzyme and stopped after 4 min with 30 μL of 6 M HClO4. Other experimental conditions were the same as described in Section 4.3. XO-catalyzed oxidation of hypoxanthine results in the formation of xanthine and uric acid in two consecutive steps.
as §1

In data set [5] the test system is XO. The following applies: cited from earlier work.
For data set [6] the following is noted: cited from earlier work.
For data set [7] the following is noted: cited from earlier work. The source holds these as a separate data set.
For data set [8] the following is noted: cited from earlier work. The source holds these as a separate data set.
The mark [9] stands for this setting: 5 μM 6-MP, 40 min incubation, 6-TU formation, read-out: 6-MP Oxidation IC50.
The mark [10] stands for this setting: 5 μM xanthine, 8 min incubation, uric acid formation, read-out: Xanthine Oxidation IC50.

Some results are limits rather than exact numbers.

T1 sequence (P80457 whole entry): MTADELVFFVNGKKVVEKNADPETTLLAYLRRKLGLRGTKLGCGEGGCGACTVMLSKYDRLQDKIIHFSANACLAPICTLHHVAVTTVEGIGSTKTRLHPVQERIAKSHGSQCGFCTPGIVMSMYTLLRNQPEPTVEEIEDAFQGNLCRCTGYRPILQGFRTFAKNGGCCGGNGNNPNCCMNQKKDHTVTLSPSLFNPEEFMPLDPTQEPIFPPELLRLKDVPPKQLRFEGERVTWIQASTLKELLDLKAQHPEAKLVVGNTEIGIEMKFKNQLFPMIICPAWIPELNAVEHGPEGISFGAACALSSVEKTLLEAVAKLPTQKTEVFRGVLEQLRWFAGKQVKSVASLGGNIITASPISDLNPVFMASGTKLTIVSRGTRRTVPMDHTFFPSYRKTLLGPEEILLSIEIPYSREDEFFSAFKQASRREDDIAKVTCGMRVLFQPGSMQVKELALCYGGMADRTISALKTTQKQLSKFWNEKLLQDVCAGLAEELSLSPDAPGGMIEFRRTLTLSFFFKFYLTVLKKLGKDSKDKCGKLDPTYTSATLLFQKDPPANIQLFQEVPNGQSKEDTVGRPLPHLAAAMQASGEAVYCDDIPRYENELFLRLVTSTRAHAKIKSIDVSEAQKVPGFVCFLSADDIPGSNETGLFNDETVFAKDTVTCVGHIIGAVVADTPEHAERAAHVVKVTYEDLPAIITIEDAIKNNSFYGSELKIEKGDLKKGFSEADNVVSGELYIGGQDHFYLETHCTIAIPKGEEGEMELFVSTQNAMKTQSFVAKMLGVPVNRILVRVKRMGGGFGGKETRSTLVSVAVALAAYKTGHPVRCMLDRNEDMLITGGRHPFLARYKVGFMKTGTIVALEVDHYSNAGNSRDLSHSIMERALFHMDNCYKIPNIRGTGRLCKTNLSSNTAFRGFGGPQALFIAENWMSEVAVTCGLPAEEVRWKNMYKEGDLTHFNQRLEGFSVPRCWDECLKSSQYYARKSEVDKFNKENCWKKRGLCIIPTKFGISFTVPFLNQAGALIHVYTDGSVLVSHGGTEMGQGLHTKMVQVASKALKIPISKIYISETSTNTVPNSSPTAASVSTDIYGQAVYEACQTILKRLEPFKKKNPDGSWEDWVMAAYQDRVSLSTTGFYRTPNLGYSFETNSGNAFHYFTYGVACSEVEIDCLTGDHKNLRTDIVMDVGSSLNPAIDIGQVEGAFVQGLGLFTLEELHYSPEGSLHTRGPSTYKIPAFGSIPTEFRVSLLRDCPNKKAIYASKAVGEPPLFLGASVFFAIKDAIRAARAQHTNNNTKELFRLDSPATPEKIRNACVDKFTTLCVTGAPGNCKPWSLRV

For the compound `COc1ccc(C(=O)O)c(O)c1` [2H4MBA, 4-Methoxysalicylic acid], the “Effect on 6-TU formation at 20 μM” value in data set [1] (5 μM 6-MP) was “significant decreases”. The “Effect on uric acid formation at 20 μM” value in data set [2] (5 μM xanthine) is given as “inhibited of uric acid formation significantly”.

For `O=C(O)Cc1ccccc1O` [2HPAA, 2-Hydroxyphenylacetic acid], the “Effect on 6-TU formation at 20 μM” value in data set [1] (5 μM 6-MP) is “significant decreases”.

As for `O=C(O)/C=C/c1cccc(O)c1` [3CA, 3-Coumaric acid], the “Effect on 6-TU formation at 20 μM” value in data set [1] (5 μM 6-MP) is on record as “significant decreases”.

`COc1ccc(CC(=O)O)cc1O` [3H4MPAA, 3-Hydroxy-4-methoxyphenylacetic acid]: the “Effect on 6-TU formation at 20 μM” value in data set [1] (5 μM 6-MP) is “significant decreases”.

For the compound `O=C(O)CCc1ccccc1` [3PPA, 3-Phenylpropionic acid], the “Effect on 6-TU formation at 20 μM” value in data set [1] (5 μM 6-MP) is given as “significant decreases”.

Take `O=C(O)c1ccc(O)cc1` [4HBA, 4-Hydroxybenzoic acid]: the “Effect on 6-TU formation at 20 μM” value in data set [1] (5 μM 6-MP) is reported as “significant decreases”.

With `O=C(O)Cc1ccc(CO)cc1` [4HMPAA, 4-(Hydroxymethyl)phenylacetic acid], the “Effect on 6-TU formation at 20 μM” value in data set [1] (5 μM 6-MP) was “significant decreases”.

As for `O=C(O)Cc1ccc(O)cc1` [4HPAA, 4-hydroxyphenylacetic acid], the “Effect on 6-TU formation at 20 μM” value in data set [1] (5 μM 6-MP) is recorded as “significant decreases”.

In the case of `CC(=O)c1ccc(O)cc1O` [24DHAP, 2,4-Dihydroxyacetophenon], the “Effect on 6-TU formation at 20 μM” value in data set [1] (5 μM 6-MP) is “significant decreases”.

On to `O=C(O)c1ccc(O)cc1O` [24DHBA, 2,4-Dihydroxybenzoic acid], for which, in data set [1] (5 μM 6-MP), the “Effect on 6-TU formation at 20 μM” value is “significant decreases”.

Turning to `O=C(O)CCc1cccc(O)c1` [33HPPA, 3-(3-Hydroxyphenyl)propionic acid], the “Effect on 6-TU formation at 20 μM” value in data set [1] (5 μM 6-MP) is reported as “significant decreases”.

As for `O=C(O)CCc1ccc(O)cc1` [34HPPA, 3-(4-Hydroxyphenyl)propionic acid], the “Effect on 6-TU formation at 20 μM” value in data set [1] (5 μM 6-MP) is recorded as “significant decreases”.

Turning to `O=C(O)CCc1ccc(O)cc1O` [324DHPPA, 3-(2,4-Dihydroxyphenyl)propionic acid], in data set [1] (5 μM 6-MP), the “Effect on 6-TU formation at 20 μM” value was “significant decreases”.

On to `Oc1ncnc2[nH]ncc12` [APU, Allopurinol, reference compound], for which the “Effect on 6-TU formation at 3 μM” value in data set [1] (5 μM 6-MP) was “only a slight effect”. Further, the “Therapeutic peak plasma concentrations” value in data set [3] is 35 to 40 µM.

As to `O=C(O)c1ccccc1` [BA, Benzoic acid], in data set [1] (5 μM 6-MP), the “Effect on 6-TU formation at 20 μM” value was “significant decreases”.

As for `O=C(O)CNC(=O)c1ccccc1` [HIPA, Hippuric acid], the “Effect on 6-TU formation at 20 μM” value in data set [1] (5 μM 6-MP) is “significant decreases”.

Usually IC50 stands for the point on the concentration scale where inhibition reaches its midpoint. Turning to `COc1cc(-c2oc3cc(O)cc(O)c3c(=O)c2OC2OC(C(=O)O)C(O)C(O)C2O)ccc1O` (stereo not drawn) [I3G, Isorhamnetin-3-glucuronide], the IC50 in data set [1] (setting [9]) was > 20 µM; in data set [2] (setting [10]) it was > 20000 nM. The “Effect on 6-TU formation at 20 μM” value in data set [1] (5 μM 6-MP) is “did not inhibit”. In addition, the “Effect on uric acid formation at 20 μM” value in data set [2] (5 μM xanthine) was “did not inhibit”.

Regarding `COc1cc(-c2oc3cc(O)cc(O)c3c(=O)c2O)ccc1O` [IR, Isorhamnetin], the IC50 came to 0.6 µM in data set [1] and 700 nM in data set [2]. Moreover, the “Effect on 6-TU formation at 3 μM” value in data set [1] (5 μM 6-MP) was “almost completely inhibited”. For the same compound, in data set [1], the “IC50 (6-MP)/IC50 (Xanthine)” value amounted to 0.86. Moreover, in data set [2] (5 μM xanthine), the “Effect on urate formation at 10 μM” value is listed as “almost completely abolished”.

`O=c1[nH]c(=O)c2c[nH]nc2[nH]1` [Oxipurinol, oxipurinol, reference compound]: the IC50 was 10 µM in data set [1] (setting [9]), 4500 nM in data set [2] (setting [10]) and > 3000 nM in data set [4]. Moreover, the “Therapeutic peak plasma concentrations” value in data set [3] is 35 to 40 µM.

As for `Oc1cccc(O)c1O` [PYR, Pyrogallol], the IC50 was 10.1 µM in data set [1] (setting [9]) and 1800 nM in data set [2] (setting [10]). Further, in data set [1] (5 μM 6-MP), the “Effect on 6-TU formation at 20 μM” value is “significant decreases”. Further, the inhibition at 20 µM in data set [1] (20 μM, 5 μM 6-MP, read-out: Inhibitory effect on 6-MP oxidation at 20 μM) was > 50%; in data set [2] (20 μM, 5 μM xanthine, read-out: Inhibitory effect on xanthine oxidation at 20 μM), > 50%. For the same compound, in data set [1], the “IC50 (6-MP)/IC50 (Xanthine)” value is recorded as 5.61. Moreover, the “Effect on uric acid formation at 20 μM” value in data set [2] (5 μM xanthine) is on record as “inhibited of uric acid formation significantly”.

Take `O=C(O)C1OC(Oc2c(-c3ccc(O)c(O)c3)oc3cc(O)cc(O)c3c2=O)C(O)C(O)C1O` (stereo not drawn) [Q3G, Quercetin-3-glucuronide]: the values for the half-maximal inhibitory concentration (IC50) in data set [1] (setting [9]) and in data set [2] (setting [10]) were > 20 µM and > 20000 nM, respectively. The “Effect on 6-TU formation at 20 μM” value in data set [1] (5 μM 6-MP) was “did not inhibit”. Moreover, the “Effect on uric acid formation at 20 μM” value in data set [2] (5 μM xanthine) is “did not inhibit”. Moreover, the “Inhibition of XO-catalyzed xanthine oxidation” value in data set [5] is “only weak inhibitors”.

As to `O=c1c(O)c(-c2ccc(O)c(OS(=O)(=O)O)c2)oc2cc(O)cc(O)c12` [Q3′S, Quercetin-3′-sulfate], the “Effect on 6-TU formation at 0.25 μM” value in data set [1] (5 μM 6-MP) is “significantly decreased”. The “Effect on 6-TU formation at 3 μM” value in data set [1] (5 μM 6-MP) is “almost completely inhibited”. For the same compound, the IC50 in data set [1] (setting [9]) is 0.5 µM; in data set [2] (setting [10]), 400 nM; in data set [4] (5 μM hypoxanthine, 4 min incubation, xanthine + uric acid formation, read-out: Hypoxanthine oxidation IC50) it was 210 nM. Also, the “IC50 (6-MP)/IC50 (Xanthine)” value in data set [1] is reported as 1.25. In addition, the “Effect on urate formation at 10 μM” value in data set [2] (5 μM xanthine) is given as “almost completely abolished”.

`O=c1c(O)c(-c2ccc(O)c(O)c2)oc2cc(O)cc(O)c12` [Q, Quercetin]: in data set [1] (5 μM 6-MP), the “Effect on 6-TU formation at 0.25 μM” value is given as “only weak inhibitory action” and the “Effect on 6-TU formation at 3 μM” value was “almost completely inhibited”. For the same compound, the “Effect on urate formation at 10 μM” value in data set [2] (5 μM xanthine) was “almost completely abolished”. Besides, the “Serum urate levels in hyperuricemic mice” value in data set [6] (100 mg/kg, hyperuricemic mice) is reported as “decreased the serum urate levels”. Further, the “Serum urate levels in normal or hyperuricemic mice” value in data set [6] (400 mg/kg orally administered) is given as “failed to decrease the serum urate levels”. Also, in data set [7] (1000 or 2000 mg/day), the “Serum uric acid levels, human” value is on record as “does not influence the serum uric acid levels”. In data set [7] (four-week treatment, 500 mg/day), the “Serum urate, human” value is given as “minimal reduction in serum urate”. Further, in data set [3] (repeated daily oral administration of 1000 mg Q), the “Peak plasma concentrations of total Q” value is given as “low micromolar range”. Further, in data set [8], the Oral bioavailability entry was “low”.

In the case of `O=c1c(OS(=O)(=O)O)c(-c2ccc(O)c(O)c2)oc2cc(O)cc(O)c12` [Q-3-sulfate], the “Inhibition of XO-catalyzed xanthine oxidation” value in data set [5] is on record as “inhibited XO only at very high concentrations”.

As to `O=C(O)[C@H]1O[C@@H](Oc2cc(-c3oc4cc(O)cc(O)c4c(=O)c3O)ccc2O)[C@H](O)[C@@H](O)[C@@H]1O` [Q-3′-glucuronide], in data set [5], the “Inhibition of XO-catalyzed xanthine oxidation” value was “similarly strong inhibitors of xanthine oxidation as Q”.

On to `O=C(O)[C@H]1O[C@@H](Oc2ccc(-c3oc4cc(O)cc(O)c4c(=O)c3O)cc2O)[C@H](O)[C@@H](O)[C@@H]1O` [Q-4′-glucuronide], for which the “Inhibition of XO-catalyzed xanthine oxidation” value in data set [5] was “similarly strong inhibitors of xanthine oxidation as Q”.

As for `O=C(O)[C@H]1O[C@@H](Oc2cc(O)c3c(=O)c(O)c(-c4ccc(O)c(O)c4)oc3c2)[C@H](O)[C@@H](O)[C@@H]1O` [Q-7-glucuronide], in data set [5], the “Inhibition of XO-catalyzed xanthine oxidation” value is “only weak inhibitors”.

Regarding `COc1ccc(-c2oc3cc(O)cc(O)c3c(=O)c2O)cc1O` [TAM, Tamarixetin], the “Effect on 6-TU formation at 0.25 μM” value in data set [1] (5 μM 6-MP) is recorded as “significantly decreased”. Further, in data set [1] (5 μM 6-MP), the “Effect on 6-TU formation at 3 μM” value is “almost completely inhibited”. Besides, the values for the concentration for half-maximal inhibition (IC50) in data set [1] (setting [9]) and in data set [2] (setting [10]) were 0.2 µM and 200 nM, respectively. Also, the “IC50 (6-MP)/IC50 (Xanthine)” value in data set [1] worked out at 1.00. Further, the “Effect on urate formation at 10 μM” value in data set [2] (5 μM xanthine) is on record as “almost completely abolished”.
